Results taken from US8569242B2, “Method of treating degenerative disorders of the nervous system” (The Regents of the University of California, priority 2005, dated 2013).
“Also recorded” adds a separate entry of the source.

Experiments:
blood coagulation = assay: Hematological analyses: plasma clotting time and prothrombin time after intranasal peptide; format: in vivo, mouse; details: 30 μg and 90 μg intranasally daily for seven days
Experimental: Hematological Analyses. Citrated plasma was prepared from mice administered intranasally 30 μg or 90 μg of γ^377-395 peptide or saline control daily for seven days. Plasma clotting times were measured by combining 10 μl of citrated plasma with 10 μl of 2 U/ml bovine thrombin (Enzyme Research Laboratories, South Bend, Ind., USA) and 40 mM. CaCl2 in a weigh boatfloating in a 37° C. water bath. Time to clot was determined by mixing with a toothpick. Plasma thrombin times were established as described previously (15). Fibrin polymerization was evaluated by standard turbidity assays using plasma. Briefly, citrate plasma (diluted tenfold in 20 mM HEPES, pH 7.4, containing 0.15 M NaCl and 5 mM-amino caproic acid) was combined with bovine thrombin (final concentration 0.2 U/ml; Enzyme Research Laboratories, South Bend, Ind., USA), and Ca^2+ (10 mM), and OD350 measurements were taken every 30 seconds.

splenocytes = assay: FACS analysis of splenocytes for peripheral immune cell markers; format: in vivo, mouse; details: peptide-treated vs untreated PLP139-151 immunized mice, day 29
Text: FACS Analysis. Primary mouse splenocytes were isolated from control and γ^377-395 peptide-treated mice, immunized with PLP139-151, on day 29 after immunization. Cells were immunostained with antibodies to CD4, CD8, CD11b, CD11c, CD19, B220 (1:100, Biolegend, San Diego, Calif.) and analyzed on a Becton Dickinson FACSCalibur flow cytometer.

primary microglia = assay: Morphometry of microglia activation (Isolectin B4 staining, cell size); format: cell-based, mouse; details: for effect on LPS-mediated microglia activation: LPS 1 μg/mL
Experimental: Culture of primary microglia cells. Microglia were isolated from cultures of mixed cortical cells as described (59). In brief, cortices from P1 mice were isolated and digested with trypsin (0.4%) for 20 minutes at 37° C. Cells from 4 pups were plated onto PDL-coated 75 cm2 tissue-culture flasks. The culture medium (DMEM, 10% heat-inactivated FBS, and 1% Pen/Strep) was changed on day 2. After 2-3 weeks in culture, the microglia were removed by the addition of 12 mM lidocaine (Sigma-Aldrich, St. Louis, Mo.) and orbital shaking (180 rpm) for 20 minutes at 37° C. The cells were centrifuged (350×G) and the pellet was resuspended in complete medium and plated onto PDL-coated tissue culture dishes. Microglia cell cultures were >95% pure as determined with three different markers, IsoB4, IBA-1 and CD11b. To immobilize fibrinogen, tissue culture dishes were incubated overnight with 50 μg/mL fibrinogen (Calbiochem, San Diego, Calif.) in 20 mM Tris (pH 7.5) and 0.1 M NaCl at 37° C. for all fibrinogen treatments. To serve as positive controls, LPS (Sigma-Aldrich, St. Louis, Mo.) was added to the media at 1 μg/mL.
Morphometry. Primary microglia were used for all morphologic analysis. Cells were plated on coated fibrinogen or in the presence of LPS for 72 hours. Microglia were fixed with methanol and immunostained with Isolectin B4 (1:300, Sigma-Aldrich, St. Louis, Mo.). Activated microglia were quantificated as those cells larger than 2,000 μm^2. Blocking experiments involved the daily administration of rat anti-CD11b (10 μg/mL, eBioscience, San Diego, Calif.), γ^377-395 peptide (200 μM) or rat IgG (10 μg/mL, Jackson ImmunoResearch Laboratories, West Grove, Pa.). Results were obtained from six separate experiments performed in duplicates. 250 cells per condition were counted for each individual experiment. Statistical calculations were made by using Student's t test.

## tyr-ser-met-lys-lys-thr-thr-met-lys-ile-ile-pro-phe-asn-arg-leu-thr-ile-gly (YSMKKTTMKIIPFNRLTIG) (listed as Homo sapiens) [γ^377-395 peptide]
Blood coagulation
  in vivo blood clotting time: does not affect; also recorded: Neither dose affected
  prothrombin time: does not affect; also recorded: Neither dose affected
splenocytes
  peripheral immune cells (CD4, CD8, CD11b, CD11c, CD19, B220) in splenocytes: did not reveal any differences; also recorded: no significant effect
Primary microglia
  effect on LPS-mediated microglia activation: did not inhibit
Primary microglia; listed as γ^377-395
  effect on LPS-mediated microglia activation: has no effect
Primary microglia; M1/70 10 μg/mL or γ^377-395 peptide 200 μM daily, fibrinogen alone 71±4.9%
  % of activated microglia in fibrinogen treated cells in the presence of blocker: 38.3±9.8%
Primary microglia; added to microglia on immobilized fibrinogen
  fibrinogen-induced morphologic activation of microglia (in words): attenuated
Primary microglia; peptide 200 μM
  effect on activation state of untreated microglia: did not affect
